# Measurements: patent publication US20240115557A1, “INHIBITORS OF RNA-GUIDED NUCLEASES AND USES THEREOF” (The Brigham and Women's Hospital, Inc., priority 2022, published 2024)
# Experiments:
# Assay type in all cases: cell-based
# SpCas9 [1] = biological target: T1, SpCas9 (Streptococcus pyogenes serotype M1, UniProt Q99ZW2); assay: HiBiT knock-in assay, SpCas9, HEK293T cells
# From the text: Primary and secondary screening. The primary screen assayed a selection of unique chemical scaffolds derived from commercially available compounds and known bioactive molecular libraries (Table 7). Auto-fluorescent compounds were removed by a counter screen. Overall, the CAA was used to assay 122,409 small molecules with over 2,500 unique chemical scaffolds (FIG. 64F, Table 7). Of these compounds, 547 were selected as hits (Z score >3 in both replicates) for testing in orthogonal cell-based secondary assays. Hits were tested in duplicate in an eGFP disruption assay, wherein U2OS.eGFP.PEST cells^33 transfected with SpCas9 plasmid and eGFP-targeting gRNA plasmid were incubated with 20 μM of the compounds. In this assay, any compound that inhibited SpCas9 would rescue the loss of eGFP fluorescence. Here, toxic and auto-fluorescent compounds with a high GFP signal in cells were removed as false positives. […] Next, Applicants tested the 15 compounds in a luminescence-based gain-of-signal HiBiT knock-in assay, which involves SpCas9-mediated homology-directed tagging of GAPDH with a short peptide that luminesces upon complementation with a subunit derived from nanoluciferase.^34 Complementarily, the eGFP-disruption assay is fluorescence-based and involves error-prone DNA repair. As a counter-screen to remove false positives caused by cell death (viability <80%), the cell viability was measured after incubation.
# Approximately 400,000 HEK293T cells were nucleofected with 400 ng of SpCas9 plasmid, 40 ng of GAPDH-targeting gRNA plasmid, and 40 pmol of single-strand oligodeoxynucleotide (ssODN) using SF Cell Line 4D-Nucleofector X Kit (Lonza) following the pulse program of DS-150. For RNP-based genome editing, 10 pmol of Cas9 and 12 pmol of gRNA were mixed and incubated for 5 min. Then, 20 pmol of ssODN was added. Cells were nucleofected with the resulting mixture using the same pulse program. Cells were then transferred to a 96-well plate at the density of 35,000 cells per well, and incubated with indicated amount of compounds for 24 h. Cell viability was measured using PrestoBlue reagent (Thermo) with a SpectraMax M5 (Molecular Devices) at the excitation and emission wavelength of 544 nm and 590 nm, respectively. Next, luminescence measurement was performed using the Nano-Glo HiBiT Lytic Detection System (Promega) according to the manufacturer's protocol with an EnVision Multilabel Plate Reader (PerkinElmer) at the integration time of 0.5 s per well. The resulting luminescence signals were normalized based on the cell viability.^34
# SpCas9 [2] = biological target: T1, SpCas9; assay: eGFP disruption assay, SpCas9, U2OS.eGFP.PEST cells; settings: for Normalized Z rep1 / Z score Rep1: replicate 1; for SpCas9 eGFP disruption Rep1: replicate 1, raw readout; for Normalized Z rep2 / Z socre Rep2: replicate 2; for SpCas9 eGFP disruption Rep2: replicate 2, raw readout
# Procedure, shortened: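 Rescue of eGFP signal lost through Cas9-induced NHEJ indels serves as the inhibition read-out, after 24 h compound exposure (20 μM for hits, variable for dose-response). Editing was delivered by nucleofection into U2OS.eGFP.PEST cells as SpCas9/gRNA plasmids (300/30 ng) or RNP (10/12 pmol). Toxic and autofluorescent compounds were excluded.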
# SaCas9 = biological target: T2, SaCas9 (Staphylococcus aureus, UniProt J7RUA5); assay: eGFP secondary assay, SaCas9
# T2 sequence (J7RUA5 1-1053): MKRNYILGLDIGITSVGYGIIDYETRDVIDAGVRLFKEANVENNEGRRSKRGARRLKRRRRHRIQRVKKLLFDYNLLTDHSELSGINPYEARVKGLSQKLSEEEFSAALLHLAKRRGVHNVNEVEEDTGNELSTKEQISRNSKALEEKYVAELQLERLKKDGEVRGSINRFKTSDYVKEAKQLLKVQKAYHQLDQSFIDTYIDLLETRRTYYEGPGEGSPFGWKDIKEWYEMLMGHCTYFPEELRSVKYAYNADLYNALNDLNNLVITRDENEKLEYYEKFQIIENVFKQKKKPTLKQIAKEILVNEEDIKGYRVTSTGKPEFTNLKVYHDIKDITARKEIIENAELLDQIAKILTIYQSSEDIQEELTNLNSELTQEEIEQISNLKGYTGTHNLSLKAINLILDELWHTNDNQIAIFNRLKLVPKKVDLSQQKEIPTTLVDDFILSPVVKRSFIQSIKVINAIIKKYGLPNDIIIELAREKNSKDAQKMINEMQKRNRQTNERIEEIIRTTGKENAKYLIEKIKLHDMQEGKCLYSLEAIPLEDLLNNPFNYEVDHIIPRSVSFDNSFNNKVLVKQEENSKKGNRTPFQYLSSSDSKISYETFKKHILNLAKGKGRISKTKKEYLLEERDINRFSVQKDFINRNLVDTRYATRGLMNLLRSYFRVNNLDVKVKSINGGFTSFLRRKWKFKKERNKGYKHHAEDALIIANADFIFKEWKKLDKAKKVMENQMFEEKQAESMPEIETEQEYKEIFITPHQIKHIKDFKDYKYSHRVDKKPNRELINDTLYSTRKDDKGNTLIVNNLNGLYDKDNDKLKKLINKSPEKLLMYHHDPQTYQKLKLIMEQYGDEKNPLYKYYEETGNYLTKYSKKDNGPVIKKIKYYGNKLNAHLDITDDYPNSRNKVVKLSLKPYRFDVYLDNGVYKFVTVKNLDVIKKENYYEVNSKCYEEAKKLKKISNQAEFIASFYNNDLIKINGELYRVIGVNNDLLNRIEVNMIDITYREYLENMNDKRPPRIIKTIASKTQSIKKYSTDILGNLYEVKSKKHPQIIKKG
# Experimental: All hit compounds were moved forward into the secondary and tertiary screens, in which they were tested in cell-based assays. An eGFP assay is used to determine hits in cells as the secondary screen (eGFP assay).
# The eGFP secondary assay evaluated the hits identified from the primary screen. The compounds were judged off the % eGFP disruption to determine the Cas9 inhibition and the assay Zscore. […] The hits from the secondary screens will be processed through tertiary screens of dose studies and HiBit Assay as detailed herein.
# [3] = result in words, relative to BRD7586
# [4] = Cas9 = lower control, Ctrl = upper control
# [5] = normalized, lower control about 0, upper control about 1
# T1 sequence (Q99ZW2 whole entry): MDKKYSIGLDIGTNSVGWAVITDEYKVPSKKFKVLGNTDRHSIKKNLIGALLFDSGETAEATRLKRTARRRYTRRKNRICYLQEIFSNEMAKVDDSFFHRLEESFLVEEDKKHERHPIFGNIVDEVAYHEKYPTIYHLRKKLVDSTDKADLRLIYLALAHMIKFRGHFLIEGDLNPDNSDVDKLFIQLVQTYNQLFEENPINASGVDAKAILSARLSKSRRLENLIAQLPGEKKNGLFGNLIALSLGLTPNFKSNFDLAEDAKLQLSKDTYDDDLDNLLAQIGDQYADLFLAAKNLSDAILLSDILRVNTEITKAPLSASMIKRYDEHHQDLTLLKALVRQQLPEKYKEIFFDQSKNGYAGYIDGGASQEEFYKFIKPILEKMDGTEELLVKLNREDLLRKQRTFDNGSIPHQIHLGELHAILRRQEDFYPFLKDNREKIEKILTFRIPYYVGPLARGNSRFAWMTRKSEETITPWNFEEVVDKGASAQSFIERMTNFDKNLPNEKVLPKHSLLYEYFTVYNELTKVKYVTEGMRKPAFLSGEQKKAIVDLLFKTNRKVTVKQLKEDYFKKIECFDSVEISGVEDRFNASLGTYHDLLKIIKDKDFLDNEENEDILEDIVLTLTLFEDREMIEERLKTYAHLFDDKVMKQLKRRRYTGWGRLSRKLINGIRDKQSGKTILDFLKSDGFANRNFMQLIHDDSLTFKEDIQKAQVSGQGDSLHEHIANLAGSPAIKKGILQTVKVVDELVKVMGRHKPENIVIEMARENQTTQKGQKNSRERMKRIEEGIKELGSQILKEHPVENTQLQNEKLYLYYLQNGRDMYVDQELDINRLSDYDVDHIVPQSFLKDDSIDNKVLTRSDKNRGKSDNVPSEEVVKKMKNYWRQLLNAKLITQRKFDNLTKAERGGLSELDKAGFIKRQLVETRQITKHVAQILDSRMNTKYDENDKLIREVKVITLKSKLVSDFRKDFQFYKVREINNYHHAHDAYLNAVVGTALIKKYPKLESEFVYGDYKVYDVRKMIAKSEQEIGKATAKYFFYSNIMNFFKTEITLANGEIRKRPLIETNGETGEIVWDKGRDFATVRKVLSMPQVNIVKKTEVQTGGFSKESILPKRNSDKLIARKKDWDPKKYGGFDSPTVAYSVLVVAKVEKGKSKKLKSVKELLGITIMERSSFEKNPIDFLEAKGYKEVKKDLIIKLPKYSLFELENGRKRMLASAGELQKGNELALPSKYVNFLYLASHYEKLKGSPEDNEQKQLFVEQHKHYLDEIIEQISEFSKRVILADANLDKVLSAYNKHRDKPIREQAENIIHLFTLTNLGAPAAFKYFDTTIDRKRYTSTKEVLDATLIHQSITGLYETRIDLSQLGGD
SMILES,Hibit assay-% inhibition (SpCas9 [1]) [%],eGFP disruption-% inhibition (SpCas9 [2]) [%],Normalized Z rep1 (SpCas9 [2]),Z score Rep1 (SpCas9 [2]),SpCas9 eGFP disruption Rep1 (SpCas9 [2]),Normalized Z rep2 (SpCas9 [2]),Z socre Rep2 (SpCas9 [2]),SpCas9 eGFP disruption Rep2 (SpCas9 [2]),SpCas9 eGFP disruption Rep1 (SpCas9 [2]; [4]),Normalized Z rep1 (SpCas9 [2]; [5]),SpCas9 eGFP disruption Rep2 (SpCas9 [2]; [4]),Normalized Z rep2 (SpCas9 [2]; [5]),also measured
O=C(CCSc1ccc(Cl)cc1)Nc1nc(-c2ccc(Br)cc2)cs1 [BRD0033],–,–,–,–,–,–,–,–,–,–,–,–,Activity in HiBiT knock-in assay (SpCas9 [1]; [3]): inactive; Activity in eGFP-disruption assay (SpCas9 [2]; [3]): inactive
COc1ccc(Cc2nn3c(-c4cccnc4)nnc3s2)cc1OC [Compound D727-0069],8.56,24.03,−0.31,−2.26,59.543,−0.17,−1.55,58.398,–,–,–,–,–
COc1ccc(Cc2nnc3sc(Cc4ccc(OC)c(OC)c4)nn23)cc1 [Compound D727-0165],22.01,25.03,–,1.09,–,–,−0.43,–,70.62,0.15,61.783,−0.05,–
c1ccc(-c2nnc3sc(-c4cc5ccccc5o4)nn23)nc1 [Compound D727-0535],18.11,18.61,−0.14,−0.99,63.743,−0.22,−2.07,56.828,–,–,–,–,–
Cc1occc1-c1nnc2sc(-c3c[nH]c4ccccc34)nn12 [Compound D727-0786],–,–,–,0.48,–,–,1.91,–,68.596,0.07,68.839,0.20,"Z score Avg Z (SaCas9; average of two replicates, Zscore>3 selected as hit): 5.097; Normalized Inhibition Rep 1 (SaCas9; replicate 1): 57.282; Normalized eGFP Disruption Rep 1 (SaCas9; replicate 1, % eGFP disruption): 42.718; Z score Rep1 (SaCas9; replicate 1, Zscore>3 selected as hit): 8.674; Normalized Inhibition Rep 2 (SaCas9; replicate 2): 12.722; Normalized eGFP Disruption Rep 2 (SaCas9; replicate 2, % eGFP disruption): 87.278; Z score Rep 2 (SaCas9; replicate 2, Zscore>3 selected as hit): 1.519"
